Data: ChEMBL document CHEMBL4261488, “Do GluN2B subunit containing NMDA receptors tolerate a fluorine atom in the phenylalkyl side chain?” (Medchemcomm, 2017)

Key:
[1] = molecular target: Glutamate receptor ionotropic, NMDA 2B (Homo sapiens, UniProt Q13224); assay: Displacement of [3H]-ifenprodil from GluN2B receptor (unknown origin) expressed in mouse L (tk-) cell membranes after 120 mins by scintillation counting method
Sus scrofa = species: Sus scrofa; assay: Displacement of [3H]-(+)-MK-801 from PCP binding site of NMDA receptor in pig brain cortex membranes at 1 uM after 90 mins by scintillation counting method relative to control; assay type: cell membranes
[2] = Displacement of [3H]-di-o-tolylguanidine from sigma 2 receptor in rat liver membranes after 120 mins by scintillation counting analysis; assay type: cell membranes, Membrane
[3] = molecular target: Sigma non-opioid intracellular receptor 1 (Cavia porcellus, UniProt Q60492); assay type: cell membranes, Brain, Membrane
Sequence of Sigma non-opioid intracellular receptor 1 (Q60492 whole entry): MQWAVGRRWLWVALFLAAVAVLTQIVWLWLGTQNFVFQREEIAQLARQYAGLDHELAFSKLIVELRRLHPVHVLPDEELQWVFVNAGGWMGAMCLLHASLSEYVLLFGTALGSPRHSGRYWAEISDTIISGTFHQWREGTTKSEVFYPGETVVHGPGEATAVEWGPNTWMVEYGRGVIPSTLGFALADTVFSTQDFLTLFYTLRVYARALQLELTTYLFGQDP

Sequence of Glutamate receptor ionotropic, NMDA 2B (Q13224 whole entry): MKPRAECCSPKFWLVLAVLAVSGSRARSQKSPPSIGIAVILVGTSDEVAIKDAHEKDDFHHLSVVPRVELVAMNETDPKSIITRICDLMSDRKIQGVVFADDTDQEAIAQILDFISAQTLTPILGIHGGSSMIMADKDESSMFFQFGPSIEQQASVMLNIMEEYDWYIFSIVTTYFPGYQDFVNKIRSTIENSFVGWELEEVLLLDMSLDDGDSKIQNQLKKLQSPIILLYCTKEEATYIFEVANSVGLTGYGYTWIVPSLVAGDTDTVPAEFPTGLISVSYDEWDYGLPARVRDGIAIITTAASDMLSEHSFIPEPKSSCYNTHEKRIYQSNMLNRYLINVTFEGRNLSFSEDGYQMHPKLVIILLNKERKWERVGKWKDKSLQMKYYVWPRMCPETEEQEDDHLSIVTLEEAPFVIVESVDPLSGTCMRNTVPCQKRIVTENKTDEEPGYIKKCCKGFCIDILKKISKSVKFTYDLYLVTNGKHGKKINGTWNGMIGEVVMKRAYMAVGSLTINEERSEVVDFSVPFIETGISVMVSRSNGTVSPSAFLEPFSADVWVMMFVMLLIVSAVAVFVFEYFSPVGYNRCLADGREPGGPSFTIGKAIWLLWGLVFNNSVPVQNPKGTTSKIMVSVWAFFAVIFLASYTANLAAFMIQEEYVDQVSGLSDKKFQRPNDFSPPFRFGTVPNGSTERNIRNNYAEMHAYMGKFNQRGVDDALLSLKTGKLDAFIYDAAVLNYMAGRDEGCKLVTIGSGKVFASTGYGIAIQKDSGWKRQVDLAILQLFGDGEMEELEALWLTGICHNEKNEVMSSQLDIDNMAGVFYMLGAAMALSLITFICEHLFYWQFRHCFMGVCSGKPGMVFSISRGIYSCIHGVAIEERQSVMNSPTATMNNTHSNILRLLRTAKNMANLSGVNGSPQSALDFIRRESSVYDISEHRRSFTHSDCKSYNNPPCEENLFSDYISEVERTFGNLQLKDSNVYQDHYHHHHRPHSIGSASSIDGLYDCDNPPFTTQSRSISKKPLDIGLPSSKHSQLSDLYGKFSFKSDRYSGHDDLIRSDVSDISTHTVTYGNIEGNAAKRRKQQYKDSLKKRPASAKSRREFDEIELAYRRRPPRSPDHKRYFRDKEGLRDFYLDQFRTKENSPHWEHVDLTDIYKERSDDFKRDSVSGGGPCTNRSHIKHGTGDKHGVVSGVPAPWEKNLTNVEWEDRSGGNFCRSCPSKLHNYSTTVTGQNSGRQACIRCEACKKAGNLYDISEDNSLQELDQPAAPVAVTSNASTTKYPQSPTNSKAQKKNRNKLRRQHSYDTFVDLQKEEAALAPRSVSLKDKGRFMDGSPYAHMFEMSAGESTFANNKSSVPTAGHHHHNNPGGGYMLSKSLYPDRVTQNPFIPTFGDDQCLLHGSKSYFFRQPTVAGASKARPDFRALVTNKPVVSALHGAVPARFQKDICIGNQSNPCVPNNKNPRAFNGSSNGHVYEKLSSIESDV

Ki [1] | inhibition (Sus scrofa) | Ki [2] | Ki [3] | SMILES
16 nM | – | – | – | COc1ccc2c(c1)CC[C@H](NCCCc1ccccc1)C[C@@H]2O (relative stereo)
11 nM | – | – | – | COc1ccc2c(c1)CCC(NCCCc1ccccc1)CC2 (stereo not given)
27 nM | 3% | 19 nM | 82 nM | FC(CCc1ccccc1)CNC1CCc2ccccc2CC1 (stereo not given)
17 nM | 2% | 14 nM | 54 nM | FC(CNC1CCc2ccccc2CC1)Cc1ccccc1 (stereo not given)
